No end group written: not given here.
Tests used:
[1] = tested on: cow; conditions: cited from earlier work
[2] = tested on: lactating dairy cows; assay: Ovulation response to GnRH injection in lactating dairy cows; format: in vivo, bovine
Source text: The sequential hormone treatments function in the following manner. The first injection of GnRH (or the LH or hCG if used) will cause ovulation of any large functional follicles that are present on the ovaries. Experimental work has shown that a follicle will ovulate in over 80% of lactating dairy cows that are given this GnRH injection. This ensures that a Corpus Luteum is present on the ovary to inhibit animals from coming into heat during the following week. This injection causes growth of a new wave of follicles due to secretion of follicle stimulating hormone (FSH) from the pituitary gland. Thus, the first injection of GnRH assures the presence of a corpus luteum and synchronizes the growth of a new follicular wave. The follicle that will eventually ovulate will come from this new wave of follicles.
As with other protocols, such as disclosed in the aforementioned patent to Donaldson, the injection of PGF2a is designed to regress any corpora lutea that are present on the ovary. This allows the new dominant follicle to proceed toward ovulation. Usually about 11/2 to 2 days later, just before two animals would begin to show signs of heat, the cows are given a second injection of GnRH. At this time the new dominant follicle should be at a large ovulatory size and this injection will cause the large follicle to ovulate. However, as indicated previously, the second dose of GnRH can be given at the same time as the PGF2a injection and this can be done where it is desirable to enhance management efficiency; that is by combining the PGF2a and GnRH injection, one step in the treatment protocol is eliminated. The cows will ovulate at 1-2 days, usually 24-32 hours after this second injection of GnRH. Thus, instead of having animals show heat over a 7 day period of time, ovulation can be synchronized to an 8 hour period of time. This concise synchronization allows for effective timed insemination.

[3] = tested on: cows; assay: Artificial insemination concomitant with second GnRH dose (preliminary work); format: in vivo, bovine; conditions: insemination near or at the same time as second GnRH injection
Experimental: While the normal practice will be to inseminate the cows about 16-20 hours after the second GnRH injection, insemination can occur any time ranging from the time of the GnRH injection or a day before or up to about a day later. Ovulation need not occur before insemination since the sperm can survive in the reproductive track for up to one or even two days after insemination. Thus insemination can safely take place one day before the GnRH injection. Preliminary work has shown that in some cases there may be some advantages to carrying out the artificial insemination concomitantly with the administration of the second dose of GnRH or within eight hours either before or after the second dose of GnRH.

[4] = second GnRH injection after PGF2a

In the case of `CCCCC[C@H](O)/C=C/[C@@H]1[C@@H](C/C=C\CCCC(=O)O)[C@@H](O)C[C@H]1O` [PGF2a, prostaglandin F2α], the “time to heat after PGF2a, large dominant follicle present” value ([1]; PGF2a given when a large dominant follicle is present) is given as 2 to 3 days and the “time for follicle to grow large enough to induce heat after PGF2a, new follicular wave just beginning” value ([1]; PGF2a given when a new follicular wave is just beginning) is given as 6 to 7 days.

With “gonadotropin releasing hormone (QHWSYGLRPG; ends and bridges not checked; UniProt P01148 24-33, looked up) [GnRH]” the “period of time to which ovulation is synchronized” value ([2]; after second GnRH injection) was 8 h, the “lactating dairy cows in which a follicle will ovulate after the first GnRH injection” value ([2]; first injection of GnRH, any stage of estrous cycle) was “over 80%” and the “time of ovulation after second injection of GnRH” value [2, 4] was 1 to 2 days. The “usual time of ovulation after second injection of GnRH” value [2, 4] was 24 to 32 h, the “birth rate of female calves” value [3] was “enhancement in the birth rate of female calves” and the spontaneous abortion rate [3] was “somewhat lower spontaneous abortion rate”.

From patent US5589457A, “Process for the synchronization of ovulation” (Ausa International, Inc., priority 1995, dated 1996)
